These results are taken from US20080234262A1 (Wyeth, priority 2007, published 2008).

For one experiment, the system named is breast line MDA468. The experiment is described as follows: In vitro cell culture growth assay (MTS), MDA468. The experiment is classed as cell-based, human. Conditions: MDA468 cells, three days after drug treatment. The essentials: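 Growth measured as percent of same-plate vehicle control by MTS metabolic dye conversion (A490). Breast MDA468 and prostate LNCap cells, plated a day ahead, were exposed to compounds for 3 days.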

In the next experiment the test system is prostate line LNCap. The experiment in a line: In vitro cell culture growth assay (MTS), LNCap.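 Also: viable cell density read by absorbance at 490 nm, growth expressed as percent of vehicle-treated cells on the same plate.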 The experiment is classed as cell-based, human. Conditions: LNCap cells, three days after drug treatment.
The target of the next experiment is PI3K (Homo sapiens, UniProt P42336). The experiment is described as follows: Fluorescence polarization assay for PI3K.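 Also: PI3K kinase reaction on PIP2 with ATP, 30-60 min, product sensed by GST-GRP with red probe in fluorescence polarization (mP), controls without enzyme and at zero time.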 It is filed as biochemical.
Sequence of PI3K (P42336 whole entry): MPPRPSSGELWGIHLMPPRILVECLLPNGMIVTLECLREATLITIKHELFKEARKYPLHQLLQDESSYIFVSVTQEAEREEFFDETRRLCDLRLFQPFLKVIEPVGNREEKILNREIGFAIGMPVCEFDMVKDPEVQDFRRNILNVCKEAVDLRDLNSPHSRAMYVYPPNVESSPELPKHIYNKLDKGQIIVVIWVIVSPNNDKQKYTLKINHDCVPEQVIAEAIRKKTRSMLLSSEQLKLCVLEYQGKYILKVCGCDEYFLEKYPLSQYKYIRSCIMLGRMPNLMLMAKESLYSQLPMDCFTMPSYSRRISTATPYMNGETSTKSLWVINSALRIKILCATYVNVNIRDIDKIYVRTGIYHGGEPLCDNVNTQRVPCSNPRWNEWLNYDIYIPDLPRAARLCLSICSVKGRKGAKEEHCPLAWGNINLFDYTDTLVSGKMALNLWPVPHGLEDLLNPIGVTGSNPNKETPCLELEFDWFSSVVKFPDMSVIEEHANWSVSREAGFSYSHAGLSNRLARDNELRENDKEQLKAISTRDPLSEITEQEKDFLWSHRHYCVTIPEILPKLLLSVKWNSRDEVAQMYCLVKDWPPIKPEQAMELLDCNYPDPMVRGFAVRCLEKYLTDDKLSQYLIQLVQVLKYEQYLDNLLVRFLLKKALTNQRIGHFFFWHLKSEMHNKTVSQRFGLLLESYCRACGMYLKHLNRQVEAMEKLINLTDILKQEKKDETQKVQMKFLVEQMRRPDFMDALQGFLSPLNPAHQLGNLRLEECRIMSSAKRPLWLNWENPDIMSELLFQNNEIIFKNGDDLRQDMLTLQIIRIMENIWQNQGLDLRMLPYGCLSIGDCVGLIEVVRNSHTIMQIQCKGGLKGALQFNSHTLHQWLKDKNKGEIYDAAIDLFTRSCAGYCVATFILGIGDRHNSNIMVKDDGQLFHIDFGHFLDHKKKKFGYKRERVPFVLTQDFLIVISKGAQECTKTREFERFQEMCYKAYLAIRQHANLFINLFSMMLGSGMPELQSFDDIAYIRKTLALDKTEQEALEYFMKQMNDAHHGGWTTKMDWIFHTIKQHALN
Sequence of PI3K (P27986 whole entry partner): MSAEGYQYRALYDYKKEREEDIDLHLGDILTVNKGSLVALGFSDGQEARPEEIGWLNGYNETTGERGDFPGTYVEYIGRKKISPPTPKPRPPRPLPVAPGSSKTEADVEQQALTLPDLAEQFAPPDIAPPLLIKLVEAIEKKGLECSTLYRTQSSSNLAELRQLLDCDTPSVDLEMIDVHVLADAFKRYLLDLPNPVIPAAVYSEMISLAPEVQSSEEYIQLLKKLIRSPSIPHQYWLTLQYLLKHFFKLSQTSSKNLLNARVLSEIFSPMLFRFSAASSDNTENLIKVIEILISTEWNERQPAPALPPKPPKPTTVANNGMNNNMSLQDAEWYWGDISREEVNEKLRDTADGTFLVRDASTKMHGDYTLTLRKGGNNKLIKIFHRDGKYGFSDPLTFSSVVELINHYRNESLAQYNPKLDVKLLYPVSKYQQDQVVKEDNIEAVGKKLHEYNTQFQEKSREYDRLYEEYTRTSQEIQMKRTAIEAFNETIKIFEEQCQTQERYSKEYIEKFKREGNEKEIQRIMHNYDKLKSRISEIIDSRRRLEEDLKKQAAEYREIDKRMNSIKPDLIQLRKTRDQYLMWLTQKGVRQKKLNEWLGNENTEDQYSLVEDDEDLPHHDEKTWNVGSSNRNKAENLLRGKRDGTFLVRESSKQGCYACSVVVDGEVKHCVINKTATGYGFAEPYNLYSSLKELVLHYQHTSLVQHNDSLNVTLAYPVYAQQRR

Read-outs that look alike come from different tables or passages of the source. Where only a bound is given, the exact number is not on record here.

For `Nc1ccnc(-c2nc(N3CCOCC3)c3cnn(C4CCN(C(=O)c5cccnc5)CC4)c3n2)c1` [Compound 678, 2-{4-morpholin-4-yl-1-[1-(pyridin-3-ylcarbonyl)piperidin-4-yl]-1H-pyrazolo[3,4-d]pyrimidin-6-yl}pyridin-4-amine], the IC50 was above 60000 nM in the experiment with breast line MDA468; 39000 nM in the experiment on prostate line LNCap; 6660 nM on PI3K (PI3Kα, read-out: PI3Kα IC50).

As for `CNC(=O)Nc1ccc(-c2nc(N3CCOCC3)c3cnn(C4CCN(C(=O)c5ccccc5OC)CC4)c3n2)cc1` [Compound 611, 1-(4-{1-[1-(2-methoxybenzoyl)piperidin-4-yl]-4-morpholin-4-yl-1H-pyrazolo[3,4-d]pyrimidin-6-yl}phenyl)-3-methylurea], the IC50 in the experiment with breast line MDA468 (Homo sapiens, 72 h) was 330 nM; in the experiment with prostate line LNCap (Homo sapiens, LNCaP, 72 h), below 27 nM; on PI3K (PI3Kα, read-out: PI3Kα IC50), 82 nM.

For the compound `COC(=O)N1CCC(n2ncc3c(N4CCOCC4)nc(-c4ccc(NC(=O)OCCN5CCCC5)cc4)nc32)CC1` [Compound 905, methyl 4-[4-morpholin-4-yl-6-(4-{[(2-pyrrolidin-1-ylethoxy)carbonyl]amino}phenyl)-1H-pyrazolo[3,4-d]pyrimidin-1-yl]piperidine-1-carboxylate], the half-inhibitory concentration (IC50) with breast line MDA468 (Homo sapiens, 72 h) is 4500 nM; in the experiment on prostate line LNCap (Homo sapiens, LNCaP, 72 h) it was 1400 nM; at PI3K (PI3Kα, read-out: PI3Kα IC50) it was 250 nM.

For the compound `CNC(=O)Nc1ccc(-c2nc(N3CCOCC3)c3cnn(C4CCN(Cc5cncc(F)c5)CC4)c3n2)cc1` [Compound 637, 1-[4-(1-{1-[(5-fluoropyridin-3-yl)methyl]piperidin-4-yl}-4-morpholin-4-yl-1H-pyrazolo[3,4-d]pyrimidin-6-yl)phenyl]-3-methylurea], the IC50 was found to be 550 nM with breast line MDA468; 110 nM with prostate line LNCap; 153 nM on PI3K (PI3Kα, read-out: PI3Kα IC50).

For the compound `NC(=O)Nc1ccc(-c2nc(N3CCOCC3)c3cnn(C4CCN(C(=O)c5cccnc5)CC4)c3n2)cc1` [Example 301, 1-(4-{4-morpholin-4-yl-1-[1-(pyridin-3-ylcarbonyl)piperidin-4-yl]-1H-pyrazolo[3,4-d]pyrimidin-6-yl}phenyl)urea], the IC50 in the experiment with breast line MDA468 (Homo sapiens, 72 h) worked out at 1800 nM; in the experiment with prostate line LNCap (Homo sapiens, LNCaP, 72 h), 3000 nM; at PI3K (PI3Kα, read-out: PI3Kα IC50), 179 nM.

As to `COC(=O)N1CCC(n2ncc3c(N4CCOCC4)nc(-c4ccc(NC(=O)Oc5ccccc5F)cc4)nc32)CC1` [Compound 866, methyl 4-[6-(4-{[(2-fluorophenoxy)carbonyl]amino}phenyl)-4-morpholin-4-yl-1H-pyrazolo[3,4-d]pyrimidin-1-yl]piperidine-1-carboxylate], the IC50 in the experiment on breast line MDA468 (Homo sapiens, 72 h) amounted to 30000 nM; in the experiment on prostate line LNCap (Homo sapiens, 72 h), 12000 nM; on PI3K (PI3Kα IC50, PI3Kα), 12000 nM.

Consider `CNC(=O)Nc1ccc(-c2nc(N3CCOCC3)c3cnn(C4CCN(C(=O)c5cccc(Cl)c5)CC4)c3n2)cc1` [Example 358, 1-(4-{1-[1-(3-chlorobenzoyl)piperidin-4-yl]-4-morpholin-4-yl-1H-pyrazolo[3,4-d]pyrimidin-6-yl}phenyl)-3-methylurea], for which the IC50 in the experiment with breast line MDA468 (Homo sapiens, 72 h) stood at 100 nM; with prostate line LNCap (Homo sapiens, LNCaP, 72 h), 27 nM; on PI3K (PI3Kα, read-out: PI3Kα IC50) it was 53 nM.

For `COC(=O)N1CCC(n2ncc3c(N4CCOC(C)C4)nc(-c4ccc(NC(=O)Nc5cccnc5)cc4)nc32)CC1` (stereo not drawn) [Compound 846, methyl 4-[4-(2-methylmorpholin-4-yl)-6-{4-[(pyridin-3-ylcarbamoyl)amino]phenyl}-1H-pyrazolo[3,4-d]pyrimidin-1-yl]piperidine-1-carboxylate], the IC50 amounted to 500 nM in the experiment with breast line MDA468 (Homo sapiens, 72 h); 58 nM with prostate line LNCap (Homo sapiens, LNCaP, 72 h); 81 nM on PI3K (PI3Kα, read-out: PI3Kα IC50).

On to `CC(C)(C)OC(=O)N1CCC(n2ncc3c(N4CCOCC4)nc(-c4ccc(NC(=O)Nc5ccon5)cc4)nc32)CC1` [Compound 882, tert-butyl 4-(6-{4-[(isoxazol-3-ylcarbamoyl)amino]phenyl}-4-morpholin-4-yl-1H-pyrazolo[3,4-d]pyrimidin-1-yl)piperidine-1-carboxylate], for which the IC50 in the experiment with breast line MDA468 (Homo sapiens, 72 h) is 490 nM; in the experiment on prostate line LNCap (Homo sapiens, LNCaP, 72 h), 70 nM; at PI3K (PI3Kα, read-out: PI3Kα IC50), 113 nM.

Regarding `CC(=O)NCc1ccc(-c2nc(N3CCOCC3)c3cnn(-c4ccccc4)c3n2)cc1` [Compound 147], the IC50 with breast line MDA468 (Homo sapiens, 72 h) is 22000 nM; in the experiment on prostate line LNCap (Homo sapiens, LNCaP, 72 h), 5600 nM; on PI3K (PI3Kα, read-out: PI3Kα IC50), 350 nM.

For the compound `CCCOC(=O)N1CCC(n2ncc3c(N4CCOCC4)nc(-c4ccc(NC(=O)Nc5cccnc5)cc4)nc32)CC1` [Compound 850, propyl 4-(4-morpholin-4-yl-6-{4-[(pyridin-3-ylcarbamoyl)amino]phenyl}-1H-pyrazolo[3,4-d]pyrimidin-1-yl)piperidine-1-carboxylate], the IC50 with breast line MDA468 (Homo sapiens, 72 h) was 120 nM; in the experiment on prostate line LNCap (Homo sapiens, LNCaP, 72 h), below 27 nM; on PI3K (PI3Kα, read-out: PI3Kα IC50), 38 nM.

As to `NNC(=O)Nc1ccc(-c2nc(N3CCOCC3)c3cnn(-c4ccccc4)c3n2)cc1` [Example 292, N-[4-(4-morpholin-4-yl-1-phenyl-1H-pyrazolo[3,4-d]pyrimidin-6-yl)phenyl]hydrazinecarboxamide], the IC50 worked out at 8000 nM with breast line MDA468 (Homo sapiens, 72 h); 5200 nM with prostate line LNCap (Homo sapiens, LNCaP, 72 h); 171 nM on PI3K (PI3Kα, read-out: PI3Kα IC50).

Take `CC(C)C(=O)N1CCC(n2ncc3c(N4CCOCC4)nc(-c4ccc(NC(=O)Nc5ccccc5)cc4)nc32)CC1` [Compound 826, 1-{4-[1-(1-isobutyrylpiperidin-4-yl)-4-morpholin-4-yl-1H-pyrazolo[3,4-d]pyrimidin-6-yl]phenyl}-3-phenylurea]: the IC50 is 110 nM in the experiment on breast line MDA468 (Homo sapiens, 72 h); 30 nM with prostate line LNCap (Homo sapiens, LNCaP, 72 h); 29 nM on PI3K (PI3Kα, read-out: PI3Kα IC50).

Consider `CC(C)(C)OC(=O)N1CCC(n2ncc3c(N4CCOCC4)nc(-c4ccc(NC(=O)Nc5ccncc5)cc4)nc32)CC1` [Compound 771, tert-butyl 4-(4-morpholin-4-yl-6-{4-[(pyridin-4-ylcarbamoyl)amino]phenyl}-1H-pyrazolo[3,4-d]pyrimidin-1-yl)piperidine-1-carboxylate], for which the IC50 with breast line MDA468 (Homo sapiens, 72 h) was found to be 190 nM; in the experiment on prostate line LNCap (Homo sapiens, LNCaP, 72 h), 70 nM; at PI3K (PI3Kα, read-out: PI3Kα IC50), 59 nM.

Regarding `CNC(=O)Nc1ccc(-c2nc(N3CCOCC3)c3cnn(C4CCN(Cc5cccc(F)c5)CC4)c3n2)cc1` [Compound 672, 1-(4-{1-[1-(3-fluorobenzyl)piperidin-4-yl]-4-morpholin-4-yl-1H-pyrazolo[3,4-d]pyrimidin-6-yl}phenyl)-3-methylurea], the IC50 with breast line MDA468 is 150 nM; in the experiment on prostate line LNCap it was 27 nM; on PI3K (PI3Kα, read-out: PI3Kα IC50), 30 nM.

For `CNC(=O)Nc1ccc(-c2nc(N3CCOCC3)c3cnn(CC(F)(F)F)c3n2)cc1` [Compound 729, 1-methyl-3-{4-[4-morpholin-4-yl-1-(2,2,2-trifluoroethyl)-1H-pyrazolo[3,4-d]pyrimidin-6-yl]phenyl}urea], the IC50 came out at 600 nM with breast line MDA468 (Homo sapiens, 72 h); 225 nM in the experiment on prostate line LNCap (Homo sapiens, LNCaP, 72 h); 194 nM at PI3K (PI3Kα, read-out: PI3Kα IC50).

As for `CNC(=O)Nc1ccc(-c2nc(N3CCOCC3)c3cnn(C4CCN(C(=O)C(C)C)CC4)c3n2)cc1` [Example 475, 1-{4-[1-(1-isobutyrylpiperidin-4-yl)-4-morpholin-4-yl-1H-pyrazolo[3,4-d]pyrimidin-6-yl]phenyl}-3-methylurea], the IC50 in the experiment with breast line MDA468 (Homo sapiens, 72 h) was determined as 300 nM; in the experiment with prostate line LNCap (Homo sapiens, LNCaP, 72 h), 150 nM; on PI3K (PI3Kα, read-out: PI3Kα IC50), 148 nM.

On to `FC(F)(F)CN1CCC(n2ncc3c(N4CCOCC4)nc(-c4ccc5[nH]ccc5c4)nc32)CC1` [Compound 471, 6-(1H-indol-5-yl)-4-morpholin-4-yl-1-[1-(2,2,2-trifluoroethyl)piperidin-4-yl]-1H-pyrazolo[3,4-d]pyrimidine], for which the IC50 was 7800 nM with breast line MDA468 (Homo sapiens, 72 h); 4000 nM in the experiment on prostate line LNCap (Homo sapiens, LNCaP, 72 h); 2880 nM at PI3K (PI3Kα, read-out: PI3Kα IC50).

As to `CNC(=O)Nc1ccc(-c2nc(N3C[C@@H](C)O[C@@H](C)C3)c3cnn(C4CCN(Cc5cccnc5)CC4)c3n2)cc1` [Compound 941, 1-(4-{4-[(2R,6S)-2,6-dimethylmorpholin-4-yl]-1-[1-(pyridin-3-ylmethyl)piperidin-4-yl]-1H-pyrazolo[3,4-d]pyrimidin-6-yl}phenyl)-3-methylurea], the IC50 was 9000 nM in the experiment with breast line MDA468 (Homo sapiens, 72 h); 2000 nM in the experiment with prostate line LNCap (Homo sapiens, LNCaP, 72 h); 3880 nM on PI3K (PI3Kα, read-out: PI3Kα IC50).

`CNC(=O)Nc1ccc(-c2nc(N3CCOCC3)c3cnn(C4CCN(C(=O)c5ccccc5Cl)CC4)c3n2)cc1` [Compound 601, 1-(4-{1-[1-(2-chlorobenzoyl)piperidin-4-yl]-4-morpholin-4-yl-1H-pyrazolo[3,4-d]pyrimidin-6-yl}phenyl)-3-methylurea]: the IC50 with breast line MDA468 (Homo sapiens, 72 h) was below 27 nM; in the experiment on prostate line LNCap (Homo sapiens, LNCaP, 72 h) it was below 27 nM; at PI3K (PI3Kα, read-out: PI3Kα IC50) it was 79 nM.

As to `O=C(c1ccc(Cl)cc1)N1CCC(n2ncc3c(N4CCOCC4)nc(-c4cccc(O)c4)nc32)CC1` [Compound 27], the IC50 in the experiment with breast line MDA468 (Homo sapiens, 72 h) was 2400 nM; in the experiment with prostate line LNCap (Homo sapiens, LNCaP, 72 h) it was 550 nM; at PI3K (PI3Kα, read-out: PI3Kα IC50), 41 nM.

Regarding `CCCNC(=O)Nc1ccc(-c2nc(N3CCOCC3)c3cnn(C4CCN(Cc5ccccc5)CC4)c3n2)cc1` [Example 254, 1-{4-[1-(1-benzylpiperidin-4-yl)-4-morpholin-4-yl-1H-pyrazolo[3,4-d]pyrimidin-6-yl]phenyl}-3-propylurea], the IC50 in the experiment with breast line MDA468 (Homo sapiens, 72 h) was found to be 1500 nM; in the experiment on prostate line LNCap (Homo sapiens, LNCaP, 72 h) it was 220 nM; on PI3K (PI3Kα, read-out: PI3Kα IC50) it was 341 nM.

Take `CNC(=O)Nc1ccc(-c2nc(N3CCOC(C)C3)c3cnn(C4CCN(C(=O)OC)CC4)c3n2)cc1` (stereo not drawn) [Compound 841, methyl 4-[6-{4-[(methylcarbamoyl)amino]phenyl}-4-(2-methylmorpholin-4-yl)-1H-pyrazolo[3,4-d]pyrimidin-1-yl]piperidine-1-carboxylate]: the IC50 amounted to 500 nM in the experiment with breast line MDA468 (Homo sapiens, 72 h); 150 nM with prostate line LNCap (Homo sapiens, LNCaP, 72 h); 268 nM on PI3K (PI3Kα, read-out: PI3Kα IC50).

On to `CCCOC(=O)N1CCC(n2ncc3c(N4CCOCC4)nc(-c4ccc(NC(=O)NCCF)cc4)nc32)CC1` [Compound 854, propyl 4-[6-(4-{[(2-fluoroethyl)carbamoyl]amino}phenyl)-4-morpholin-4-yl-1H-pyrazolo[3,4-d]pyrimidin-1-yl]piperidine-1-carboxylate], for which the 50% inhibitory concentration (IC50) amounted to 330 nM in the experiment on breast line MDA468 (Homo sapiens, 72 h); 27 nM in the experiment on prostate line LNCap (Homo sapiens, LNCaP, 72 h); 600 nM at PI3K (PI3Kα, read-out: PI3Kα IC50).

For orientation: IC50 means the concentration that inhibits the measured activity by half.
